In experiment [1] the target is T1, Beta-secretase 1 (Homo sapiens, UniProt P56817). As to the kind of experiment: Inhibition of recombinant BACE1 (unknown origin) using fluorogenic substrate.
Experiment [2] addresses T1, Beta-secretase 1. As to the kind of experiment: Inhibition of BACE1 (unknown origin) by cell-based assay.

Structures are written as SMILES.

T1 sequence (P56817 whole entry): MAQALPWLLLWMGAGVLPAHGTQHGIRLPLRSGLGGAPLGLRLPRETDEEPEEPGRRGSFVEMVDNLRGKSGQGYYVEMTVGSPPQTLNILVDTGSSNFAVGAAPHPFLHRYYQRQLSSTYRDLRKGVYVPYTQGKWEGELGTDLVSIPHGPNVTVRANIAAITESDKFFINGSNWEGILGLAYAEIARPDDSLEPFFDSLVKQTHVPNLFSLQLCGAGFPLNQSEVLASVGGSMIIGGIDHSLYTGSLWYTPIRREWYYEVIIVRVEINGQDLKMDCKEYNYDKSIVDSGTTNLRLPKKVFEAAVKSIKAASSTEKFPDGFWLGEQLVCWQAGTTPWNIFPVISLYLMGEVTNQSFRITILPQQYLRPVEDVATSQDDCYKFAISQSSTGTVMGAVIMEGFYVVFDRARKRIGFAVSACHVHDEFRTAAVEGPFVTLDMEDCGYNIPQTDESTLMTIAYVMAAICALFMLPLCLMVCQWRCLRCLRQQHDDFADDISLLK

In general, Ki refers to a measure of affinity in units of concentration, obtained from inhibition or displacement. As to `CC(C)CNC(=O)[C@@H](NC(=O)[C@H](C)C[C@H](O)[C@H](CC(C)C)NC(=O)[C@H](CNC(=O)OC(C)(C)C)NC(=O)C1=NO[C@H]2OCC[C@@H]12)C(C)C`, the Ki on Beta-secretase 1 [1] stood at 4120 nM.

For the molecule `CC(C)CNC(=O)[C@@H](NC(=O)[C@H](C)C[C@H](O)[C@H](CC(C)C)NC(=O)[C@H](CS(C)(=O)=O)NC(=O)C1=NO[C@H]2OCCC[C@@H]12)C(C)C`, on Beta-secretase 1 [1], the Ki turned out to be 630 nM. `CC(C)CNC(=O)[C@@H](NC(=O)[C@H](C)C[C@H](O)[C@H](CC(C)C)NC(=O)[C@H](CS(C)(=O)=O)NC(=O)C1=NO[C@@H]2OCCC[C@H]12)C(C)C`: the Ki on Beta-secretase 1 [1] is 28.1 nM. Same read-out and setting: the figure for `CSC[C@H](NC(=O)C1=NO[C@H]2OCC[C@@H]12)C(=O)N[C@@H](CC(C)C)[C@@H](O)C[C@@H](C)C(=O)N[C@H](C(=O)NCC(C)C)C(C)C` is 554 nM; for `CC(C)CNC(=O)[C@@H](NC(=O)[C@H](C)C[C@H](O)[C@H](CC(C)C)NC(=O)[C@H](CS(C)(=O)=O)NC(=O)C1=NO[C@@H]2OCC[C@H]12)C(C)C` it is 110 nM. On the same count and under the same terms, the result for `CC(C)CNC(=O)[C@@H](NC(=O)[C@H](C)C[C@H](O)[C@H](CC(C)C)NC(=O)[C@H](CNC(=O)OC(C)(C)C)NC(=O)C1=NO[C@@H]2OCC[C@H]12)C(C)C` reads 809 nM.

Take `COc1cccc(CNC[C@@H](O)[C@H](Cc2ccccc2)NC(=O)[C@H](CS(C)(=O)=O)NC(=O)C2=NO[C@@H]3OCC[C@H]23)c1`: at Beta-secretase 1 [1], the Ki came to 41100 nM.

Take `COc1cccc(CNC[C@@H](O)[C@H](Cc2ccccc2)NC(=O)[C@H](CS(C)(=O)=O)NC(=O)C2=NO[C@H]3OCC[C@@H]23)c1`: on Beta-secretase 1 [1], the Ki is 28800 nM. Broadly, the EC50 is the concentration at which the effect is half-maximal. Low values mean greater potency, high ones weaker potency. For `CSC[C@H](NC(=O)C1=NO[C@@H]2OCC[C@H]12)C(=O)N[C@@H](CC(C)C)[C@@H](O)C[C@@H](C)C(=O)N[C@H](C(=O)NCC(C)C)C(C)C`, the Ki on Beta-secretase 1 [1] worked out at 10.9 nM. On Beta-secretase 1 [2], this molecule gave an EC50 of 343 nM. As for `CC(C)CNC(=O)[C@@H](NC(=O)[C@H](C)C[C@H](O)[C@H](CC(C)C)NC(=O)[C@H](CS(C)(=O)=O)NC(=O)C1=NO[C@H]2OCC[C@@H]12)C(C)C`, the Ki on Beta-secretase 1 [1] was determined as 280 nM.
